“Also recorded” adds a separate entry of the source. Each block holds one compound with its values, some of them ahead of it.
Experiments:
[1] = system: cancer cells; test: List of active compounds: types of cancers and precancers active against; assay type: cell-based
Text: As discussed, the adamantyl retinoid derivatives according to the invention which induce apoptosis are useful for treating many different types of cancers.

[2] = system: human cervical cancer cell lines Caski and C33A; test: Proliferation assay on cervical cancer cell lines (Example 32, FIG. 6); assay type: cell-based
Procedure: Two human cervical cancer cell lines, the Caski and C33A (which contains integrated human papillomavirus sequences) were treated with adapalene at concentrations of 1, 2 and 10 μM for 24, 48 and 96 hours or with tretinoin as a control. Afterward, human cervical cancer cells, which had been treated for […] or 48 hours, were then washed and incubated in a medium lacking adapalene.
After a total incubation time of 96 hours, a proliferation assay was performed to assess the extent of inhibition of proliferation or cell killing. […] The EC50 (concentration of adapalene that provides for 50% inhibition of cell proliferation) for the tested human cervical cancer cell lines was estimated to be approximately 5 μM.

[3] = system: human cervical cancer cell lines (C33A cells and Caski cells); test: Proliferation of human cervical cancer cell lines (Example 33, FIG. 7); assay type: cell-based
Procedure: Another experiment was also conducted to compare the effect of three different retinoid compounds according to the invention, i.e., 6-[3-(1-adamantyl)-4-methoxyphenyl]-2-naphthoic acid, 2-[3-(1-adamantyl)-4-methoxyphenyl]-5-benzimidazole carboxylic acid, and 6-[3-(1-adamantyl)-4,5-methylenedioxyphenyl]-2-naphthoic acid, a control (DMSO), and a control retinoid (all-trans retinoic acid) on the proliferation of several human cervical cancer cell lines (C33A cells and Caski cells).

[4] = system: cervical cancer cell lines; test: Apoptosis, cellular DNA fragmentation ELISA (FIG. 8); assay type: cell-based, human; details: eighteen hours; adapalene 1, 5 and 10 μM, tRA 10 μM, ceramide 0.5 mM
Procedure: In this experiment cells were labeled with BrdU for six hours. After labeling, cells were treated with vehicle (DM50), or with 10 μM tRA, 0.5 mM ceramide or doses of adapalene of 1, 5 and 10 μM for eighteen hours. Apoptosis was measured using a cellular DNA fragmentation ELISA kit (available from Boehringer). […] Therein, one unit represents the value obtained from cells grown in the presence of vehicle alone.

[5] = system: Cervical Intraepithelial Neoplasia Level II or III; test: Phase I/II clinical study, aqueous adapalene gel with cervical cap and collagen sponge; assay type: in vivo, human; details: for CIN Resolved / Improved to CIN I / Overall Response / Overall “cure” / Improved from CIN III to CIN II: Table II
Text: Level I corresponds to mild cervical dysplasia, II to moderate dysplasia, and III to severe dysplasia, and carcinoma in situ.
A clinical study was designed and approved where an aqueous adapalene gel was delivered with a cervical cap and a collagen sponge in patients with advanced cervical dysplasia (CIN II and CIN III). Inclusion criteria for enrollment included a biopsy proving diagnosis of CIN II or CIN III. Forty-nine patients received the drug and completed the study.

[6] = system: various human cancer cell lines; test: Anti-cancer activity against human cancer cell lines over a concentration range (FIGS. 2-4); assay type: cell-based; details: retinoid concentrations 10^−9 M to 10^−5 M
Text: FIG. 2 compares the activity of selected adamantyl retinoids according to the invention and all-trans-retinoic acid against a human non-small lung carcinoma cell line.
FIG. 3 compares the activity of selected adamantyl retinoids according to the invention and all-trans-retinoic acid against human prostate adenocarcinoma, human metastatic prostate adenocarcinoma, and human prostate carcinoma cell lines.
FIG. 4 compares the activity of selected adamantyl retinoids according to the invention and all-trans-retinoic acid against a human liver cancer cell line.

[7] = length of treatment 4 days (n = 2), patients (percent)
[8] = length of treatment 8 days (n = 23), patients (percent)
[9] = length of treatment 14 days (n = 24), patients (percent)

EC50 ([2]; Homo sapiens, total incubation time 96 hours, estimated, read-out: EC50 (concentration that provides for 50% inhibition of cell proliferation)): ~5 µM
Compound: COc1ccc(-c2ccc3cc(C(=O)O)ccc3c2)cc1C12CC3CC(CC(C3)C1)C2 [Compound 1, 6-[3-(1-adamantyl)-4-methoxyphenyl]-2-naphthoic acid]
Types of Cancers and Precancers Active Against [1]: brain, cervical (including, e.g.,; also recorded: cervical intraepithelial neoplasia; also recorded: I, II, III), head and neck, leu-; also recorded: kemia, lymphoma, prostate, skin
inhibition of proliferation of cervical cancer cell lines ([2]; 1, 2 and 10 μM for 24, 48 and 96 hours): inhibit the proliferation of cervical cancer cell lines in a dose-dependent manner
effect of incubation longer than 24 hours on proliferation ([2]; increase between 48 and 96 hours not statistically significant (p>0.05)): only a marginal effect on proliferation
concentration at which maximum inhibition of cell proliferation occurred ([2]; tested at 1, 2 and 10 μM): 10 µM
effect on proliferation of human cervical cell lines [3]: strong inhibitory effect
induction of apoptosis [4]: comparable to that of cells incubated with ceramide
Response: Complete ([5]; 4 days, CIN II (n = 0)): 0(0.0)
Response: Overall ([5]; 4 days, CIN II (n = 0)): 0(0.0)
Response: Partial ([5]; 4 days, CIN II (n = 0)): 0(0.0)
Response: Progression ([5]; 4 days, CIN II (n = 0)): 0(0.0)
Response: Stable ([5]; 4 days, CIN II (n = 0)): 0(0.0)
Response: Complete ([5]; 4 days, CIN III/CIS (n = 2)): 0(0.0)
Response: Overall ([5]; 4 days, CIN III/CIS (n = 2)): 0(0.0)
Response: Partial ([5]; 4 days, CIN III/CIS (n = 2)): 0(0.0)
Response: Progression ([5]; 4 days, CIN III/CIS (n = 2)): 0(0.0)
Response: Stable ([5]; 4 days, CIN III/CIS (n = 2)): 2(100.0)
Response: Complete ([5]; 8 days, CIN II (n = 12)): 4(33.3)
Response: Overall ([5]; 8 days, CIN II (n = 12)): 8(66.7)
Response: Partial ([5]; 8 days, CIN II (n = 12)): 4(33.3)
Response: Progression ([5]; 8 days, CIN II (n = 12)): 0(0.0)
Response: Stable ([5]; 8 days, CIN II (n = 12)): 4(33.3)
Response: Complete ([5]; 8 days, CIN III/CIS (n = 11)): 3(27.3)
Response: Overall ([5]; 8 days, CIN III/CIS (n = 11)): 6(54.5)
Response: Partial ([5]; 8 days, CIN III/CIS (n = 11)): 3(27.3)
Response: Progression ([5]; 8 days, CIN III/CIS (n = 11)): 0(0.0)
Response: Stable ([5]; 8 days, CIN III/CIS (n = 11)): 5(45.4)
Response: Complete ([5]; 14 days, CIN II (n = 14)): 3(21.4)
Response: Overall ([5]; 14 days, CIN II (n = 14)): 6(42.9)
Response: Partial ([5]; 14 days, CIN II (n = 14)): 3(21.4)
Response: Progression ([5]; 14 days, CIN II (n = 14)): 0(0.0)
Response: Stable ([5]; 14 days, CIN II (n = 14)): 8(57.1)
Response: Complete ([5]; 14 days, CIN III/CIS (n = 10)): 2(20.0)
Response: Overall ([5]; 14 days, CIN III/CIS (n = 10)): 3(30.0)
Response: Partial ([5]; 14 days, CIN III/CIS (n = 10)): 1(10.0)
Response: Progression ([5]; 14 days, CIN III/CIS (n = 10)): 0(0.0)
Response: Stable ([5]; 14 days, CIN III/CIS (n = 10)): 7(70.0)
CIN Resolved ([5]; CIN II, N = 27): 30%
Improved to CIN I ([5]; CIN II, N = 27): 22%
Overall Response ([5]; CIN II, N = 27): 52%
Overall “cure” ([5]; CIN II, N = 27): 52%
CIN Resolved ([5]; CIN III, N = 21): 24%
Improved from CIN III to CIN II ([5]; CIN III, N = 21): 29%
Improved to CIN I ([5]; CIN III, N = 21): 19%
Overall Response ([5]; CIN III, N = 21): 72%
Overall “cure” ([5]; CIN III, N = 21): 43%
CIN Resolved ([5]; Total, N = 48): 27%
Improved from CIN III to CIN II ([5]; Total, N = 48): 13%
Improved to CIN I ([5]; Total, N = 48): 21%
Overall Response ([5]; Total, N = 48): 61%
Overall “cure” ([5]; Total, N = 48): 48%
response rates versus length of treatment ([5]; eight to fourteen days): did not increase
patients with complete response ([5]; human, in vivo): Twelve
patients with partial response (regressed to CIN I) ([5]; human, in vivo): eleven
patients with stable disease with no progression ([5]; human, in vivo): Twenty-six
Response: Complete [5, 7]: 0(0.0)
Response: Overall [5, 7]: 0(0.0)
Response: Partial [5, 7]: 0(0.0)
Response: Progression [5, 7]: 0(0.0)
Response: Stable [5, 7]: 2(100.0)
Response: Complete [5, 8]: 7(30.4)
Response: Overall [5, 8]: 14(60.8)
Response: Partial [5, 8]: 7(30.4)
Response: Progression [5, 8]: 0(0.0)
Response: Stable [5, 8]: 9(39.1)
Response: Complete [5, 9]: 5(20.8)
Response: Overall [5, 9]: 9(37.5)
Response: Partial [5, 9]: 4(16.7)
Response: Progression [5, 9]: 0(0.0)
Response: Stable [5, 9]: 15(62.5)
overall response rate (partial plus complete) ([5]; ninety days after treatment, 47 patients, eight day or fourteen day treatment): 48.7%
adverse effects ([5]; no patient withdrawn because of an adverse event): all averse effects reported were mild
highest overall response rate ([5]; patients treated for eight days): 60.8%
response ([5]; two patients, four day treatment): no response

Compound: COc1ccc(-c2nc3ccc(C(=O)O)cc3[nH]2)cc1C12CC3CC(CC(C3)C1)C2 [Compound 2, 2-[3-(1-adamantyl)-4-methoxyphenyl]-5-benzimidazole carboxylic acid]
Types of Cancers and Precancers Active Against [1]: brain, colon, leukemia, lung,; also recorded: cervical (including, e.g.,; also recorded: cervical intraepithelial neoplasia; also recorded: I, II, III), lymphoma, myeloma,; also recorded: ovarian, pancreatic, prostate,; also recorded: skin, liver
anti-cancer activity [6]: significant anti-cancer activity
effect on proliferation of human cervical cell lines [3]: strong inhibitory effect

Compound: O=C(O)c1ccc2cc(-c3ccc(CO)c(C45CC6CC(CC(C6)C4)C5)c3)ccc2c1 [Compound 3, 6-[3-(1-adamantyl)-4-hydroxymethylphenyl]-2-naphthoic acid]
Types of Cancers and Precancers Active Against [1]: bladder, brain, breast, cervical,; also recorded: colon, head and neck, leukemia,; also recorded: kidney, lung, myeloma, ovarian,; also recorded: pancreatic, prostate, skin, liver
anti-cancer activity [6]: significant anti-cancer activity

Compound: COc1cc(-c2ccc3cc(C(=O)O)ccc3c2)cc(C23CC4CC(CC(C4)C2)C3)c1O [Compound 4, 6-[3-(1-adamantyl)-4-hydroxy-5-methoxyphenyl]-2-naphthoic acid]
Types of Cancers and Precancers Active Against [1]: brain, breast, kidney, lung,; also recorded: leukemia, lymphoma, myeloma,; also recorded: ovarian, pancreatic, prostate,; also recorded: skin, liver
anti-cancer activity [6]: significant anti-cancer activity

Compound: COc1ccc(-c2ccc3cc(C(=O)O)ccc3c2)cc1C12CC3CC(C)(CC(C)(C3)C1)C2 [Compound 42, 6-[3-(3,5-dimethyl-1-adamantyl)-4-methoxyphenyl]-2-naphthoic acid]
Types of Cancers and Precancers Active Against [1]: skin

Compound: CC12CC3CC(C)(C1)CC(c1cc(-c4ccc5cc(C(=O)O)ccc5c4)cc4c1OCO4)(C3)C2 [Compound 43, 6-[3-(3,5-dimethyl-1-adamantyl)-4,5-methylenedioxyphenyl]-2-naphthoic acid]
Types of Cancers and Precancers Active Against [1]: prostate, breast, neuroblastoma

Compound: COc1ccc(-c2ccc3cc(C(=O)N4CCCNCC4)ccc3c2)cc1C12CC3CC(CC(C3)C1)C2 [Compound 44, N-{6-[3-(1-adamantyl)-4-methoxyphenyl]-2-naphthalenecarboxoyl}homopiperazide]
Types of Cancers and Precancers Active Against [1]: bladder, kidney, epidermal,; also recorded: leukemia lung, neuroblastoma,; also recorded: hepatoma, cervix, skin

Compound: COc1ccc(-c2ccc3cc(C(=O)NCCN)ccc3c2)cc1C12CC3CC(CC(C3)C1)C2 [Compound 45, N-(2-aminoethyl)-{6-[3-(1-adamantyl)-4-methoxyphenyl]-2-naphthalenecarboxamide]]
Types of Cancers and Precancers Active Against [1]: bladder, kidney, prostate,; also recorded: leukemia, breast, lung, neuro-; also recorded: blastoma, hepatoma, pancreas,; also recorded: cervix skin

Compound: O=C(c1ccc2cc(-c3cc4c(c(C56CC7CC(CC(C7)C5)C6)c3)OCO4)ccc2c1)N1CCNCC1 [Compound 46, N-{6-[3-(1-adamantyl)-4,5-methylenedioxy]-2-naphthalenecarboxoyl}piperazide]
Types of Cancers and Precancers Active Against [1]: prostate, neuroblastoma,; also recorded: hepatoma

Compound: O=C(c1ccc2cc(-c3cc4c(c(C56CC7CC(CC(C7)C5)C6)c3)OCO4)ccc2c1)N1CCCNCC1 [Compound 47, N-{6-[3-(1-adamantyl)-4,5-methylenedioxy]-2-naphthalenecarboxoyl}homopiperazide]
Types of Cancers and Precancers Active Against [1]: bladder, neuroblastoma, cervix, and skin

Compound: NCCNC(=O)c1ccc2cc(-c3cc4c(c(C56CC7CC(CC(C7)C5)C6)c3)OCO4)ccc2c1 [Compound 48, N-(2-aminoethyl)-{6-[3-(1-adamantyl)-4,5-methylenedioxyphenyl]-2-naphthalenecarboxamide}]
Types of Cancers and Precancers Active Against [1]: breast, hepatoma, skin

Compound: CC12CC3CC(C1)CC(c1cc(-c4ccc5cc(C(=O)O)ccc5c4)ccc1O)(C3)C2 [Compound 49, 6-[3-(3-methyl-1-adamantyl)-4-hydroxyphenyl]-2-naphthalenecarboxylic acid]
Types of Cancers and Precancers Active Against [1]: breast, neuroblastoma, leukemia

Compound: Ceramide
induction of apoptosis [4]: effectively induced apoptosis

Source: patent US6462064B1, “Apoptosis inducing adamantyl derivatives and their usage as anti-cancer agents, especially for cervical cancers and dysplasias” (Galderma Research & Development S.N.C., priority 1996, dated 2002)
